How the values were obtained:
[1] = biological target: T1, hM1 (human Muscarinic receptor subtype 1) (Homo sapiens, UniProt P11229); experiment: Human M1 calcium mobilization FLIPR assay; assay type: cell-based; details: hM1 expressed in CHO cells, intracellular Ca2+ release, read-out: hM1 EC50
T1 construct: expressed in transfected cells; host or cells: CHO cells (Chinese hamster ovary cells, ATCC)
T1 sequence (P11229 1-460): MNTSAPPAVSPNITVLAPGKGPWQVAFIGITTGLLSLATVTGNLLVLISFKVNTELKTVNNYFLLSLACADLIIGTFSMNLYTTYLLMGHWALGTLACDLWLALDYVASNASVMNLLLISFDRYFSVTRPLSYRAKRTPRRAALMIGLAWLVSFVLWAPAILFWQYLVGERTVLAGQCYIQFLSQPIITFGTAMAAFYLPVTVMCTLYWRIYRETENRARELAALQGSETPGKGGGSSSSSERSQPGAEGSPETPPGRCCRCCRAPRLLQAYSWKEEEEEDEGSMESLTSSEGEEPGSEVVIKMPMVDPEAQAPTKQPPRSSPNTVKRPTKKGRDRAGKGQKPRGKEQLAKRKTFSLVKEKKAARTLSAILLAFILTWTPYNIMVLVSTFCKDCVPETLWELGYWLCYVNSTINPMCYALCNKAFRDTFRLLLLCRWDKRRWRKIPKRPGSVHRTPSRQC
In short: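 CHO cells expressing the receptor, dye-loaded at 37°C for 60 min, read on FLIPR at 510-570 nm. Agonism taken from compound-induced Ca2+ rise (max RFU for M1); M3/M5 inhibition measured against 2 nM acetylcholine using max minus min RFU. 10-point threefold dilutions, sigmoidal fits.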

[2] = biological target: T2, cloned human M4 receptor (human Muscarinic receptor subtype 4) (Homo sapiens, UniProt P08173); experiment: hM4 receptor GTPγS binding; assay type: biochemical; details: CHO cell membranes expressing hM4; [35S]GTPγS binding; read-out: hM4 EC50
T2 construct: purchased Perkin-Elmer RBHM4M; host or cells: Chinese hamster ovary cells (CHO) membranes
T2 sequence (P08173 1-479): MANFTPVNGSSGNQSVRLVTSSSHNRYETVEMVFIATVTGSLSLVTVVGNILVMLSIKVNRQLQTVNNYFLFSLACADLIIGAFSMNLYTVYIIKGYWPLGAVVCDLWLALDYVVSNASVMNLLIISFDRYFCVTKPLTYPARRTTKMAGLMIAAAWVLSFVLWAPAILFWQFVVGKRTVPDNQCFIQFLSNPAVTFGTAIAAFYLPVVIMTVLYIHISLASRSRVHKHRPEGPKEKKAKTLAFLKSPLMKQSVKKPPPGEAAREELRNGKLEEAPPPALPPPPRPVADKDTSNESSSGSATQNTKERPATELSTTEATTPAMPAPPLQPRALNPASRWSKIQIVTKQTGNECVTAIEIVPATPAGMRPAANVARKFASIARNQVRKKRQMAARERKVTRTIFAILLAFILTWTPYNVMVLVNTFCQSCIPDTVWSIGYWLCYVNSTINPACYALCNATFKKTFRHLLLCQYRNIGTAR
Experimental: hM4 Receptor GTPγS Binding
Membranes produced from Chinese hamster ovary cells (CHO) expressing the cloned human M4 receptor (human Muscarinic receptor subtype 4, gene bank access NM_000741), are obtained from Perkin-Elmer (RBHM4M). The membranes are thawed at 37° C., passed 3 times through a 23-gauge blunt-end needle, diluted in the GTPγS binding buffer (50 mM Hepes, 20 mM NaOH, 100 mM NaCl, 1 mM EDTA, 5 mM MgCl2, pH 7.4, 100 μM DTT). The EC50, IC50 and Emax of the compounds of the invention are evaluated from 10-point dose-response curves (three fold concentration range) done in 60 μl in 384-well non-specific binding surface plate (Corning). Ten microliters from the dose-response curves plate (5× concentration) are transferred to another 384 well plate containing 25 μl of the following: 10 μg of hM4 membranes, 500 μg of Flashblue beads (Perkin-Elmer) and GDP 40 μM. An additional 15 μl containing 3.3× (60,000 dpm) of GTPγ^35S (0.4 nM final) are added to the wells resulting in a total well volume of 50 μl. Basal and maximal stimulated [^35S]GTPγS binding are determined in absence and presence of 30 μM final of acetylcholine agonist. The membranes/beads mix are pre-incubated for 15 minutes at room temperature with 40 μM GDP prior to distribution in plates (20 μM final). The reversal of acetylcholine-induced stimulation (10 μM final) of [^35S]GTPγS binding is used to assay the antagonist properties (IC50) of the compounds. The plates are incubated for 60 minutes at room temperature then centrifuged at 400 rpm for 5 minutes. The radioactivity (cpm) is counted in a Trilux (Perkin-Elmer).
Values of EC50, IC50 and Emax are obtained using sigmoidal fits of a non-linear curve-fitting program (XLfit version 4.2.2 Excel add-in version 4.2.2 build 18 math 1Q version 2.1.2 build 18) of percent stimulated [^35S]GTPγS binding vs. log(molar ligand). All pEC50 and plC50 values are reported as arithmetic means ±standard error of mean of ‘n’ independent experiments.

| SMILES | EC50 [1] | EC50 [2] |
| --- | --- | --- |
| Cc1ccc2c(c1)[nH]c(=O)n2C1CCN(C2(C)CCN(C(=O)OCCF)C2)CC1 (single isomer, unassigned) [Example 27, 2-fluoroethyl 3-methyl-3-(4-(5-methyl-2-oxo-2,3-dihydro-1H-benzo[d]imidazol-1-yl)piperidin-1-yl)pyrrolidine-1-carboxylate] | 10.8 nM | 3090 nM |
| Cc1ccc2[nH]c(=O)n(C3CCN(C4(C)CCN(C(=O)OCCF)C4)CC3)c2c1 (single isomer, unassigned) [Example 28, 2-fluoroethyl 3-methyl-3-(4-(6-methyl-2-oxo-2,3-dihydro-1H-benzo[d]imidazol-1-yl)piperidin-1-yl)pyrrolidine-1-carboxylate] | 10 nM | 8390 nM |
| CC1(N2CCC(n3c(=O)[nH]c4ccccc43)CC2)CCN(C(=O)OCCF)C1 (single isomer, unassigned) [Example 31, 2-fluoroethyl 3-methyl-3-(4-(2-oxo-2,3-dihydro-1H-benzo[d]imidazol-1-yl)piperidin-1-yl)pyrrolidine-1-carboxylate] | 13.1 nM | 1190 nM |
| CC1(N2CCC(n3c(=O)[nH]c4ccccc43)CC2)CCN(C(=O)OCCF)C1 (single isomer, unassigned) [Example 32, 2-fluoroethyl 3-methyl-3-(4-(2-oxo-2,3-dihydro-1H-benzo[d]imidazol-1-yl)piperidin-1-yl)pyrrolidine-1-carboxylate] | 52.1 nM | 33700 nM |

Further lines, results first:

| EC50 [1] | EC50 [2] | SMILES |
| --- | --- | --- |
| 1.7 nM | 316 nM | CC#CCOC(=O)N1CCC(C)(N2CCC(n3c(=O)[nH]c4ccccc43)CC2)C1 (single isomer, unassigned) [Example 33, but-2-ynyl 3-methyl-3-(4-(2-oxo-2,3-dihydro-1H-benzo[d]imidazol-1-yl)piperidin-1-yl)pyrrolidine-1-carboxylate] |
| 14.7 nM | 1670 nM | CC#CCOC(=O)N1CCC(C)(N2CCC(n3c(=O)[nH]c4ccccc43)CC2)C1 (single isomer, unassigned) [Example 34, but-2-ynyl 3-methyl-3-(4-(2-oxo-2,3-dihydro-1H-benzo[d]imidazol-1-yl)piperidin-1-yl)pyrrolidine-1-carboxylate] |
| 32 nM | 6830 nM | C#CCOC(=O)N1CCC(C)(N2CCC(n3c(=O)[nH]c4cc(F)ccc43)CC2)C1 (single isomer, unassigned) [Example 36, prop-2-ynyl 3-(4-(5-fluoro-2-oxo-2,3-dihydro-1H-benzo[d]imidazol-1-yl)piperidin-1-yl)-3-methylpyrrolidine-1-carboxylate] |
| 26.7 nM | > 90000 nM | Cc1ccc2[nH]c(=O)n(C3CCN(C4(C)CCN(C(=O)OC(C)C)C4)CC3)c2c1 (single isomer, unassigned) [Example 39, isopropyl 3-methyl-3-(4-(6-methyl-2-oxo-2,3-dihydro-1H-benzo[d]imidazol-1-yl)piperidin-1-yl)pyrrolidine-1-carboxylate] |
| 36.3 nM | > 22300 nM | Cc1ccc2[nH]c(=O)n(C3CCN(C4(C)CCN(C(=O)OC(C)C)C4)CC3)c2c1 (single isomer, unassigned) [Example 40, isopropyl 3-methyl-3-(4-(6-methyl-2-oxo-2,3-dihydro-1H-benzo[d]imidazol-1-yl)piperidin-1-yl)pyrrolidine-1-carboxylate] |
| 23.5 nM | 8800 nM | C#CCOC(=O)N1CCC(C)(N2CCC(n3c(=O)[nH]c4ccc(C)cc43)CC2)C1 (single isomer, unassigned) [Example 41, prop-2-ynyl 3-methyl-3-(4-(6-methyl-2-oxo-2,3-dihydro-1H-benzo[d]imidazol-1-yl)piperidin-1-yl)pyrrolidine-1-carboxylate] |
| 2.5 nM | 460 nM | C#CCOC(=O)N1CCC(C)(N2CCC(n3c(=O)[nH]c4ccc(C)cc43)CC2)C1 (single isomer, unassigned) [Example 43, prop-2-ynyl 3-methyl-3-(4-(6-methyl-2-oxo-2,3-dihydro-1H-benzo[d]imidazol-1-yl)piperidin-1-yl)pyrrolidine-1-carboxylate] |

Reference: US20090221642A1, “MUSCARINIC RECEPTOR AGONISTS, COMPOSITIONS, METHODS OF TREATMENT THEREOF, AND PROCESSES FOR PREPARATION THEREOF-176” (AstraZeneca AB, priority 2008, published 2009)
